The values that follow come from patent US9993515B2 (DSM IP ASSETS B.V., priority 2006, dated 2018).

Like-named read-outs stand apart in the source and are kept apart here. Residues, ends and D or L forms follow the SMILES beside them.

The subject of one data set is healthy volunteers. Put plainly: Profile of Mood States (POMS) after consumption of tryptophan sources (Example 6). It counts as in vivo, human. Particulars: for mood changes after the intake (POMS total mood scores): over time after intake.
For data set [1] the following is noted: both, human, in vivo. The procedure: The amino acid profiles in plasma were analyzed as described in Example 6 by HPLC according to van Eijk et al (J. Chromatogr. 1993: 620: 143-148).
The aim of the present study was to investigate in healthy volunteers plasma Trp/LNAA profiles and mood after the consumption of different tryptophan containing preparations.
Eighteen healthy students (9 males and 9 females: age between 18-30 years) participated in the study. Exclusion criteria for participation were chronic and current illness, history of psychiatric or medical illness, use of medication or drugs, alcohol consumption (>2 units/day), metabolic-, hormonal- or intestinal diseases and irregular diets or deviant eating habits (assessed by health and life-style questionnaires). Subjects participating in the experiment were in the normal range for the Body-Mass Index (BMI in kg/m^2 between 20-25) and female subjects are matched for contraception. Women participated during their mid-late follicular phase (day 4-10), while women using contraception participated when they actually used the contraception pill. […] All subjects participating in the experiment signed an Informed Consent Form. This study was conducted according to the EC principles of Good Clinical Practice (GCP) adopted by the 52nd WMA General Assembly, Edinburgh, Scotland, October 2000.
Subjects were instructed to fast overnight; only water or tea without sugar was permitted. During five experimental morning sessions, subjects visited the laboratory to monitor plasma Trp/LNAA concentrations and mood following the intake of a drink containing different Trp or LNAA concentrations. The order of presentation of the various drinks was counterbalanced and the four experimental days were separated by a one-week period. On each experimental morning, a 312 ml drink was provided containing different tryptophan (Trp) or LNAA concentrations (Table 1). All drinks contained 0.10 g sweetener (acesulfame) and were filled up with plain water in order to reach 312 mL. A research assistant blind to the dietary conditions conducted the administration of the different drinks.
Blood samples were collected in duplicate before and 15, 30, 60, 90, 120, 180 and 210 minutes after ingestion in 5 ml vacutainer tubes containing sodium heparine and were then centrifuged at 5000 rpm for 5 min at 4° C. The resulting supernatants were mixed with sulfasalicyl acid (4 mg/100 microliter) and directly stored at −80° C. until analysis. Plasma amino acid analysis was conducted with HPLC, making use of a 2-3 μm Bischof Spherisorb ODS II column as described by van Eijk et al (J. Chromatogr. 1993: 620: 143-148). The plasma Trp/LNAA ratios were calculated by dividing the plasma molar tryptophan concentration by the sum of the plasma molar concentrations of the large neutral amino acids valine, isoleucine, leucine, tyrosine and phenylalanine. Statistical analysis took place by means of repeated measures multivariate and univariate analyses of variance (MANOVA and ANOVA) using the General Linear Model (GLM: SPSS 12.0 for Windows). All statistics were evaluated at a significance level of P=0.05.

From the text for healthy volunteers: The POMS comprises five different subscales for mood; ranging from Anger, Depression, Fatigue and Tension that refer to a negative mood state, to Vigor concerning a positive mood.

In the case of `N[C@@H](CO)C(=O)N[C@@H](Cc1c[nH]c2ccccc12)C(=O)O` [SYN, Ser-Trp] (H-Ser-Trp-OH), the “mood changes after the intake (POMS total mood scores)” value in the data set on healthy volunteers was “not significant”.
For `N[C@@H](Cc1c[nH]c2ccccc12)C(=O)O` [TRP, L-tryptophan], in the data set with healthy volunteers (60 min after the intake), the “mood (POMS total mood scores)” value is reported as “improvements of mood”. Also, the “plasma Trp/LNAA ratio” value was found to be 0.11 in data set [1] (0 min); 0.12 in data set [1] (30 min); 0.29 in data set [1] (60 min); 0.31 in data set [1] (90 min); 0.32 in data set [1] (120 min); 0.24 in data set [1] (180 min). In addition, in data set [1] (210 min), the “plasma Trp/LNAA ratio” value is on record as 0.20.
For “ALAC: intact alpha-lactalbumin obtained as Biopure (>90% alpha-lactalbumin) from Davisco Foods International”, the “mood changes after the intake (POMS total mood scores)” value in the data set on healthy volunteers is recorded as “no mood changes”.
